# US20110046179A1, “NOVEL PIPERIDINE DERIVATIVES AND THEIR USE AS MONOAMINE NEUROTRANSMITTER RE-UPTAKE INHIBITORS” (priority 2006, published 2011)
# Structures can show the parent of a compound that is named as a salt.
# What was measured:
# [1] = molecular target: T1, serotonine (5-HT) reuptake in synaptosomes (Rattus norvegicus, UniProt P31652); assay: Inhibition of 5-HT reuptake in synaptosomes; format: biochemical; conditions: 3H-5-HT, read-out: 5-HT-uptake IC50
# T1 construct: in synaptosomes as described in WO 97/16451; from tissue; host or cells: synaptosomes (brain tissue)
# Method: (§1) A number of compounds were tested for their ability to inhibit the reuptake of the monoamine neurotransmitters dopamine (DA) noradrenaline (NA) and serotonine (5-HT) in synaptosomes as described in WO 97/16451.
# (§2) The test values are given as IC50 (the concentration (μM) of the test substance which inhibits the specific binding of ^3H-DA, ^3H-NA, or ^3H-5-HT by 50%).
# [2] = molecular target: T2, dopamine (DA) reuptake in synaptosomes (Rattus norvegicus, UniProt P23977); assay: Inhibition of DA reuptake in synaptosomes; format: biochemical; conditions: 3H-DA, read-out: DA-uptake IC50
# T2 construct: in synaptosomes as described in WO 97/16451; from tissue; host or cells: synaptosomes (brain tissue)
# Method: as §1, §2
# [3] = molecular target: T3, noradrenaline (NA) reuptake in synaptosomes (Rattus norvegicus); assay: Inhibition of NA reuptake in synaptosomes; format: biochemical; conditions: 3H-NA, read-out: NA-uptake IC50
# T3 construct: in synaptosomes as described in WO 97/16451; from tissue; host or cells: synaptosomes (brain tissue)
# Method: as §1, §2
# T3 sequence (Q63380 1-617): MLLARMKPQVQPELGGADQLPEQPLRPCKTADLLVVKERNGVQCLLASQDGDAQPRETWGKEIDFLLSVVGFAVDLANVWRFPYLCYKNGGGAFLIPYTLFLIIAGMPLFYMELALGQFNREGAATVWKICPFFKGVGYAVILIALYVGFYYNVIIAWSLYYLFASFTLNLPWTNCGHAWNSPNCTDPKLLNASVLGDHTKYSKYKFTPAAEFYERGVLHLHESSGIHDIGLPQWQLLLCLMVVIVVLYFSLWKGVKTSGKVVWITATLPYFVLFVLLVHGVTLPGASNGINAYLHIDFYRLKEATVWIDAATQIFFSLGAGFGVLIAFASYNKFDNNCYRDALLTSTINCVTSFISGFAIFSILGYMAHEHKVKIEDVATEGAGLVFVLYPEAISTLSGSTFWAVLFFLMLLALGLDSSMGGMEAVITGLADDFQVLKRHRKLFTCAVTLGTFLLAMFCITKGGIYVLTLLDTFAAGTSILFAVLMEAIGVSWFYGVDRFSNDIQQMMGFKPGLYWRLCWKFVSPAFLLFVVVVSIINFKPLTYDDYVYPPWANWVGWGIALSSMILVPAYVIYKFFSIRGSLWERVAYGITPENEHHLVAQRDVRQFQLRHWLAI
# T2 sequence (P23977 whole entry): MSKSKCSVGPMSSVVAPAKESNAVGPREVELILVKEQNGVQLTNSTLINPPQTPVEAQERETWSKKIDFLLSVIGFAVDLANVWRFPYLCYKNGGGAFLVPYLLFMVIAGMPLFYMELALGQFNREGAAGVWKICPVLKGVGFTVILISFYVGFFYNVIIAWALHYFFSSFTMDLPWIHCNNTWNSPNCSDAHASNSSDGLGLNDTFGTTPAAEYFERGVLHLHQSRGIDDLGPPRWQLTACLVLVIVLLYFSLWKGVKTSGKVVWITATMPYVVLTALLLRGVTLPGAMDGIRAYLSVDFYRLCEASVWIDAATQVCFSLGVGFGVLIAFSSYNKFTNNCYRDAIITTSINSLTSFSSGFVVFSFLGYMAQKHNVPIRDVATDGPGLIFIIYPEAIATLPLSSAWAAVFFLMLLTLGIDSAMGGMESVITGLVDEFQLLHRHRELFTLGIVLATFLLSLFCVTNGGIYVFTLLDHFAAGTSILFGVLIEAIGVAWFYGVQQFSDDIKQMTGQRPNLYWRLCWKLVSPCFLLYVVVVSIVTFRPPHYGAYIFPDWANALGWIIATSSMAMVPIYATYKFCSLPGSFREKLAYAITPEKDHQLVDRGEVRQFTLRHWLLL
# T1 sequence (P31652 whole entry): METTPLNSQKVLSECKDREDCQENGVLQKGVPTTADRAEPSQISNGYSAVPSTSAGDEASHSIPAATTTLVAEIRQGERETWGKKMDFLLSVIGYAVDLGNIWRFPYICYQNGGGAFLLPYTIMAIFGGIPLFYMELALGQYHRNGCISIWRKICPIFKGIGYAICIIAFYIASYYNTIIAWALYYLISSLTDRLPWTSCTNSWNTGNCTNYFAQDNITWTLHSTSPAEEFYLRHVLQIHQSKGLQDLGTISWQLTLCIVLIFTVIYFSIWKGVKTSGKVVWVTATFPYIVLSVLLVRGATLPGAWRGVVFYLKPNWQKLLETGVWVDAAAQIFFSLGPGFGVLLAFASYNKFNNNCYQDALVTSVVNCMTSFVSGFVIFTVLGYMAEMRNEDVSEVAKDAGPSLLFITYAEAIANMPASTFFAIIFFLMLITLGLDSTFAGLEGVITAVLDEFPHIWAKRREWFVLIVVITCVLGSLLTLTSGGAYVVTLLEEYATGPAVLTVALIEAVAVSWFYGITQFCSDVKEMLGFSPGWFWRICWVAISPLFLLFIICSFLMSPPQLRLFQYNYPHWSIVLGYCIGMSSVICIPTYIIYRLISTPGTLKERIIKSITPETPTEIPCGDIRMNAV
Structure (SMILES),melting point [°C],IC50 [1] [nM],IC50 [2] [nM],IC50 [3] [nM]
CCOCC1(Cc2ccc(Cl)c(Cl)c2)CCNCC1.O=C(O)/C=C/C(=O)O,147.4 to 150.6,,,
"Clc1ccc(CC2(COc3ccc(Cl)c(Cl)c3)CCNCC2)cc1Cl (as salt: fumarate) [Compound 5ae, 4-(3,4-Dichloro-benzyl)-4-(3,4-dichloro-phenoxymethyl)-piperidine]",166.3 to 168.9,,,
"OCC1(Cc2ccc(Cl)c(Cl)c2)CCNCC1 [Compound 5a, [4-(3,4-Dichloro-benzyl)-piperidin-4-yl]-methanol]",147.7 to 148.7,,,
"Clc1ccc(CC2(COc3cccc(Cl)c3Cl)CCNCC2)cc1Cl [Compound 5ad, 4-(3,4-Dichloro-benzyl)-4-(2,3-dichloro-phenoxymethyl)-piperidine]",93.9 to 94.6,,,
"COCC1(Cc2ccc3ccccc3c2)CCNCC1 (as salt: fumarate) [Compound 5da, 4-Methoxymethyl-4-naphthalen-2-ylmethyl-piperidine]",139 to 142,,,
"COCC1(Cc2ccc(Cl)c(Cl)c2)CCNCC1.O=C(O)/C=C/C(=O)O [Compound 5aa, 4-(3,4-Dichloro-benzyl)-4-methoxymethyl-piperidine fumaric acid salt]",158.1 to 162.2,22,1600,480

# Continued, in another order:
melting point [°C],Structure (SMILES),IC50 [1] [nM],IC50 [2] [nM],IC50 [3] [nM]
167 to 168.4,"COCC1(Cc2cccc(Cl)c2Cl)CCNCC1 (as salt: fumarate) [Compound 5ba, 4-(2,3-Dichloro-benzyl)-4-methoxymethyl-piperidine]",,,
77.7 to 79.3,"Clc1ccc(OCC2(Cc3ccccc3)CCNCC2)cc1Cl [Compound 5ce, 4-Benzyl-4-(3,4-dichloro-phenoxymethyl)-piperidine]",0.26,6,4.8
165 to 167,"Clc1ccc(CC2(COc3ccccc3)CCNCC2)cc1Cl (as salt: fumarate) [Compound 5ac, 4-(3,4-Dichloro-benzyl)-4-phenoxymethyl-piperidine]",,,
